Source: patent publication US4434171A, “Dibenzazepine derivatives, pharmaceutical compositions containing them, and pharmaceutical methods using them” (Sandoz Ltd., priority 1980, dated 1984)

Experiments:
3H-Spiperone receptors = molecular target: T1, 3H-Spiperone receptors (Bos taurus, UniProt P20288); experiment: binding to 3H-Spiperone receptors, modified test from J. Leysen et al.; conditions: calf brain striatal tissue; 0.1 nM 3H-Spiperone; 5×10^-7 M Cinanserin; pH 7.7; 40 min at room temperature; read-out: IC50 in the neuroleptic test from J. Leysen (inhibition of specific Spiperone binding)
T1 construct: Fresh calf brain striatal tissue is homogenized; from tissue; host or cells: calf brain striatum membranes
Experimental: Fresh calf brain striatal tissue is homogenized in a 25 fold volume of Tris buffer (50 mM, pH 7.7, 120 mM sodium chloride) and centrifuged. The pellets are resuspended in a 22 fold volume of the Tris buffer, incubated for 15 min. at 37° C., recentrifuged and the pellets resuspended in a 300 fold volume of the Tris buffer. […] After incubation for 40 min. at room temperature, the assay mixtures are rapidly filtered through Whatman GF/B filters and washed twice with 5 ml of ice cold Tris buffer and then scintillation-counted.

[1] = tested on: spontaneous motor activity in male mice; experiment: inhibition of spontaneous motor activity in male mice (Caviezel and Baillod); assay type: in vivo, mouse; conditions: p.o.
Experimental: In particular, the compounds of the invention are useful as neuroleptic agents in the treatment of e.g. psychotic disturbances such as schizophrenia, as indicated in standard tests, e.g. by an inhibition of spontaneous motor activity in male mice on p.o. administration of from about 1 to about 50 mg/kg animal body weight of the compounds e.g. in accordance with the principles of Caviezel and Baillod (Pharm. Acta Helv. (1958), 33, 465-484).

T1 sequence (P20288 whole entry): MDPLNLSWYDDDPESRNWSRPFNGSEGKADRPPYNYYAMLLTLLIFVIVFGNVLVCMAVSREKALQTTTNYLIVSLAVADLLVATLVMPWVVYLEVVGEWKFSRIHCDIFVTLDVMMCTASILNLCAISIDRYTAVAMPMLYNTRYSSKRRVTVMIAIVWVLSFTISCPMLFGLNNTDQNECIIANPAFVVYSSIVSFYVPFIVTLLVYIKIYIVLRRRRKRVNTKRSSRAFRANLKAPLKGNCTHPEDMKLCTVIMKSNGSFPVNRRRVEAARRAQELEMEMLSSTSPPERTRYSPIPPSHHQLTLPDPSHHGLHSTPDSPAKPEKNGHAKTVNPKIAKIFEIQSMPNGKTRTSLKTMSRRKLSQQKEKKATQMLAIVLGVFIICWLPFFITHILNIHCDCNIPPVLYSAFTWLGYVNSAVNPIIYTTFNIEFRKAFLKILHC

- IC50 (3H-Spiperone receptors): 100 nM
Structure (SMILES): CN1CCC(N2Cc3cc(Cl)ccc3Cc3ccccc32)CC1 [Example 1, 8-Chloro-5,6-dihydro-5-(1-methyl-4-piperidinyl)-11H-dibenz[b,e]azepine]
- activity in inhibiting spontaneous motor activity, compared with Clozapine [1]: comparable to that of Clozapine
